{"source": "patent US20250235429A1", "about": "“TREATMENT OF DISEASES VIA ADMINISTRATION OF BUNTANETAP AND AN ANTIDIABETIC AGENT” (ANNOVIS BIO, INC., priority 2024, published 2025)", "key": {"[1]": {"test_system": "APP in SH-SY-5Y human neuroblastoma cells", "assay": "APP in vitro (Western blot) in neuroblastoma cells", "type": "cell-based", "conditions": "SH-SY-5Y cells; 0, 0.1, 1, 5 and 10 μM"}, "APP and its fragments": {"test_system": "APP and its fragments", "assay": "APP in vivo in APP/PS1 transgenic AD mice (hippocampus)", "from_the_text": "FIG. 2, APP in vivo. […] GAPDH and Synaptophysin were loading controls. FIG. 2 also includes a collection of graphs showing relative density of APP plotted against control and time after buntanetap treatment; relative density of CTFβ plotted against control and time after buntanetap treatment; relative density of CTFα plotted against control and time after buntanetap treatment; A042 levels in brain tissue plotted against control and time after buntanetap treatment; and A040 levels in brain tissue plotted against control and time after buntanetap treatment. Finally, FIG. 2 also includes a Western blot showing levels of APP, NSB, CTFβ, and CTFα after buntanetap treatment over time (minutes)."}, "APP/PS1 transgenic mice [2]": {"test_system": "APP/PS1 transgenic mice", "assay": "2-day radial arm water maze (RAWM), spatial memory", "type": "in vivo", "protocol": "(§1) Animals: Heterozygous double transgenic mice expressing both human APP (K670N:M671L) and human PS1 (M146L) (line 6.2) and their wild-type non-transgenic littermates, both males and females, were used for these experiments. They were obtained by a breeding colony maintained at the animal facility of Columbia University. They were genotyped through PCR on tail samples. Animals were injected i.p. from the age of […] for 1 month prior to starting behavioral assessment which lasted for 2 weeks during which treatment continued. Behavioral assessment examined spatial and associative memory. Finally, mice were sacrificed for electrophysiological assessment of synaptic function.\nMice were coded to blind investigators with respect to genotype and treatment. Results were expressed with Standard Error of the Mean (SEM). Level of significance was set for p<0.05. Results were analyzed by ANOVA analysis with post-hoc correction with the combination or genotype as main effect. Experiments were designed in a balanced fashion, and mice were trained and tested at each of the different conditions in 3 or 4 separate experiments.\nMice were i.p. injected with the drug from the age of 8 weeks prior to plaque appearance until behavioral assessment that started at 12 weeks of age and lasted for 2 weeks.\nSpatial memory was studied with the 2-day radial arm water maze (RAWM) test. The task is a hybrid of the Morris Water Maze (MWM) and the radial arm land maze. The motivation for the animals is immersion in water. The mouse needs to swim in 6 alleys (arms) radiating from a central area until it finds a hidden (submerged) platform at the end of one of the arms, based on visual cues placed in the room. In the old RAWM version of the task, the goal arm varies from day to day, requiring 21 days of training in wild-type mice to reach the learning criterion. In the new version of the task, the goal arm is kept constant for all trials, with a different start arm on successive trials, such that the learning criterion will be reached in 2 days. The first day of the protocol was a training day. Mice were trained to identify the platform location by alternating between a visible and a hidden platform in a goal arm. The final 3 trials on day 1 and all 15 trials on day 2 used a hidden escape platform to force mice to use spatial cues to identify the location of the goal arm. To avoid learning limitations imposed by exhausting practice and to avoid fatigue that may result from consecutive trials, spaced practice training was established by running the mice in cohorts of 4 and alternating different cohorts through the 15 training trials over 3 hours testing periods each day. On day 1, a visible platform was laced in a goal location. Mouse 1 of cohort 1 was gently placed in the pool near the perimeter of the wall of the first start arm (specified on a score sheet) and facing the center of the pool. The number of incorrect arm entries (entries in arms with no platform) was counted. If the animal enters the incorrect arm it was gently pulled back to the start arm. Each trial lasted up to 1 min. Failure to select an arm after 15 sec was counted as an error and the mouse was returned to the start arm. After 1 min, if the platform had not been located, the mouse was guided gently through the water by placing a hand behind it to direct it towards the platform. The mouse rested on the platform for 15 sec. After completing the trial, the mouse was removed from the pool, gently towel dried and placed back into its cage under a heat lamp. The goal platform location was different for each mouse. […] After each mouse from cohort 1 completed six alternating trials between visible and hidden platforms, the mice were left to rest under a heating source, and mice from the second cohort were tested in the same way."}, "APP/PS1 transgenic mice [3]": {"test_system": "APP/PS1 transgenic mice", "assay": "Contextual fear conditioning (FC), associative memory", "type": "in vivo", "conditions": "Buntanetap 1 mg/Kg and/or dulaglutide 0.1 mg/Kg", "protocol": "as §1\nMice were coded to blind investigators with respect to genotype and treatment. Results were expressed with Standard Error of the Mean (SEM). […] Results were analyzed by ANOVA analysis with post-hoc correction with the combination or genotype as main effect. […]\nThe combination effect on associative memory was assessed through fear conditioning (FC). […] Freezing behavior, defined as the absence of movements except for that needed for breathing, was scored using Noldus software. Contextual fear learning, a type of memory for which hippocampal function is indispensable, was evaluated 24 hrs after training by measuring freezing responses for 5 min in the same chamber where the mice have been trained. […]"}, "aSYN": {"test_system": "aSYN", "conditions": "transgenic Parkinson's animals, in the brain and in the gut; cited from earlier work"}, "[4]": {"test_system": "APP, Tau, and aSYN in the cerebrospinal fluid (CSF) of MCI subjects", "assay": "CSF biomarkers in MCI subjects before and after 10 days of buntanetap (proof of mechanism)", "conditions": "mildly cognitive impaired patients, 10 days of administration (FIG. 3)"}}, "note": "Entries after “also recorded” stand apart in the source; their conditions may differ."}
{"compound": "CN1CC[C@]2(C)c3cc(OC(=O)Nc4ccccc4)ccc3N(C)C12", "note": "(stereo partly drawn) [Buntanetap, (3aR)-1,3a,8-trimethyl-1,2,3,3a,8,8a-hexahydropyrrolo[2,3-b]indol-5-yl phenylcarbamate]", "values": [{"measurement": "APP in relation to Actin standard (Western blot)", "setting": "[1]", "result": "lowers APP in vitro in a dose-dependent manner"}, {"measurement": "time after the last dose for which APP and all related peptides in hippocampus were reduced", "setting": "APP and its fragments; APP/PS1 mice", "result": "at least 9 hours"}, {"measurement": "APP and its fragments in hippocampus", "setting": "APP and its fragments; APP/PS1 transgenic AD mice", "result": "reduced"}, {"measurement": "% Improvement (RAWM errors)", "setting": "APP/PS1 transgenic mice [2]; APP/PS1, Buntanetap 1 mg/kg", "result": 29.4, "unit": "%"}, {"measurement": "Meran Number of Errors (RAWM)", "setting": "APP/PS1 transgenic mice [2]; APP/PS1, Buntanetap 1 mg/kg", "result": 2.8}, {"measurement": "Meran Number of Errors (RAWM)", "setting": "APP/PS1 transgenic mice [2]; APP/PS1, Buntanetap 10 mg/kg", "result": 1.6}, {"measurement": "% Improvement (RAWM errors)", "setting": "APP/PS1 transgenic mice [2]; APP/PS1, Buntanetap 10 mg/kg, 100% = difference of 1.7 errors", "result": 100, "unit": "%"}, {"measurement": "impairment of short-term spatial memory measured through the 2-day radial arm water maze (RAWM)", "setting": "APP/PS1 transgenic mice [2]; APP/PS1 mice, Buntanetap 1 mg/Kg and/or dulaglutide 0.1 mg/Kg", "result": "did not ameliorate"}, {"measurement": "impairment of associative memory measured through contextual fear conditioning (FC)", "setting": "APP/PS1 transgenic mice [3]", "result": "did not ameliorate"}, {"measurement": "aSYN in vivo", "setting": "aSYN", "result": "lowers"}, {"measurement": "APP/Abeta, tau/phospho-tau and alpha-synuclein in the spinal fluid", "setting": "[4]", "result": "reduction; also recorded: normalized"}]}
